Measured values taken from PubChem BioAssay AID1845210 (Molecular Pharmacology Branch, DTP, NCI, 2023).
pIC50: −log10 of the molar value. Values joined by “and” are separate entries in the source; they are usually repeats but may differ in a detail not shown here. Identical values can stand only once.

System: NCI-H226 complex tumor spheroids, viability
Experiment: Anticancer human tumor NCI-H226 cell line growth inhibition;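 also: spheroids exposed to compound for 7 days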;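 as to viability, T/C: 100% = DMSO vehicle control viability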
Details: for viability, T/C: stronger effect = lower value
Summary of the method: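 Complex tumor spheroids combined malignant cells with endothelial cells and mesenchymal stem cells. DNA-damaging drugs and DNA repair inhibitors were tested alone and in combination, at half-log dilutions down from clinical Cmax (top 10 microM if Cmax unknown), 0.25% DMSO final.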

[1] = curve of first compound, second compound 0.003 µM
[2] = curve of first compound, second compound 0.00949 µM
[3] = curve of first compound, second compound 0.03 µM
[4] = curve of first compound, second compound 0.0949 µM
[5] = curve of first compound, second compound 0.3 µM
[6] = second compound 0.003 µM, first compound 0.0316 µM
[7] = second compound 0.003 µM, first compound 0.1 µM
[8] = second compound 0.003 µM, first compound 0.316 µM
[9] = second compound 0.003 µM, first compound 1 µM
[10] = second compound 0.003 µM, first compound 3.16 µM
[11] = second compound 0.003 µM, first compound 10 µM
[12] = second compound 0.00949 µM, first compound 0.0316 µM
[13] = second compound 0.00949 µM, first compound 0.1 µM
[14] = second compound 0.00949 µM, first compound 0.316 µM
[15] = second compound 0.00949 µM, first compound 1 µM
[16] = second compound 0.00949 µM, first compound 3.16 µM
[17] = second compound 0.00949 µM, first compound 10 µM
[18] = second compound 0.03 µM, first compound 0.0316 µM
[19] = second compound 0.03 µM, first compound 0.1 µM
[20] = second compound 0.03 µM, first compound 0.316 µM
[21] = second compound 0.03 µM, first compound 1 µM
[22] = second compound 0.03 µM, first compound 3.16 µM
[23] = second compound 0.03 µM, first compound 10 µM
[24] = second compound 0.0949 µM, first compound 0.0316 µM
[25] = second compound 0.0949 µM, first compound 0.1 µM
[26] = second compound 0.0949 µM, first compound 0.316 µM
[27] = second compound 0.0949 µM, first compound 1 µM
[28] = second compound 0.0949 µM, first compound 3.16 µM
[29] = second compound 0.0949 µM, first compound 10 µM
[30] = second compound 0.3 µM, first compound 0.0316 µM
[31] = second compound 0.3 µM, first compound 0.1 µM
[32] = second compound 0.3 µM, first compound 0.316 µM
[33] = second compound 0.3 µM, first compound 1 µM
[34] = second compound 0.3 µM, first compound 3.16 µM
[35] = second compound 0.3 µM, first compound 10 µM

CC(C)n1c(=O)n(C)c2cnc3cc(F)c(-c4ccc(OCCCN5CCCCC5)nc4)cc3c21 + CC[C@@]1(O)C(=O)OCc2c1cc1n(c2=O)Cc2cc3c(CN(C)C)c(O)ccc3nc2-1 was tested, and the pIC50 [1] was 5.22, the pIC50 [2] was 5.24 and the pIC50 [3] was 5.28. It also gave a pIC50 [4] of 5.36, a pIC50 [5] of 5.30 and a viability, T/C [6] of 99.8%. The viability, T/C [7] was 92.3%, the viability, T/C [8] was 94.5% and the viability, T/C [9] was 93.9%. For the same compound, the viability, T/C [10] was 82.3%, the viability, T/C [11] was 24.5% and the viability, T/C [12] was 86.4%. It also gave a viability, T/C [13] of 86.5%, a viability, T/C [14] of 86.5% and a viability, T/C [15] of 86.3%. For the same compound, the viability, T/C [16] was 84%, the viability, T/C [17] was 17.9% and the viability, T/C [18] was 81.4%. The viability, T/C [19] was 78.3%, the viability, T/C [20] was 83.2% and the viability, T/C [21] was 75.4%. The viability, T/C [22] was 73.2%, the viability, T/C [23] was 21% and the viability, T/C [24] was 87.4%. It also gave a viability, T/C [25] of 85.3%, a viability, T/C [26] of 75.7% and a viability, T/C [27] of 77.9%. The viability, T/C [28] was 61.5%, the viability, T/C [29] was 22.8% and the viability, T/C [30] was 92.2%. For the same compound, the viability, T/C [31] was 84.3%, the viability, T/C [32] was 73.4% and the viability, T/C [33] was 84.1%. For the same compound, the viability, T/C [34] was 71.8% and the viability, T/C [35] was 17%.
For COc1cc(C)[nH]c(=O)c1CN1CCc2c(Cl)cc(C(OC)C3COC3)c(Cl)c2C1=O (configuration not stated) + CC[C@@]1(O)C(=O)OCc2c1cc1n(c2=O)Cc2cc3c(CN(C)C)c(O)ccc3nc2-1, the pIC50 [1] was < 5.00, the pIC50 [2] was < 5.00 and the pIC50 [3] was < 5.00. For the same compound, the pIC50 [4] was < 5.00, the pIC50 [5] was < 5.00 and the viability, T/C [6] was 93.7%. For the same compound, the viability, T/C [7] was 123%, the viability, T/C [8] was 110% and the viability, T/C [9] was 122%. It also gave a viability, T/C [10] of 112%, a viability, T/C [11] of 98.5% and a viability, T/C [12] of 88.6%. The viability, T/C [13] was 102%, the viability, T/C [14] was 100% and the viability, T/C [15] was 95.8%. It also gave a viability, T/C [16] of 99.2%, a viability, T/C [17] of 97.3% and a viability, T/C [18] of 86.4%. The viability, T/C [19] was 87%, the viability, T/C [20] was 80.6% and the viability, T/C [21] was 92.7%. The viability, T/C [22] was 92.6%, the viability, T/C [23] was 87.4% and the viability, T/C [24] was 97.3%. The viability, T/C [25] was 93.1%, the viability, T/C [26] was 86.4% and the viability, T/C [27] was 92.9%. The viability, T/C [28] was 88.3%, the viability, T/C [29] was 81.6% and the viability, T/C [30] was 71.4%. It also gave a viability, T/C [31] of 73.3%, a viability, T/C [32] of 72% and a viability, T/C [33] of 75.2%. For the same compound, the viability, T/C [34] was 69.9% and the viability, T/C [35] was 72.9%.
With Cc1cc(C)c(CNC(=O)c2cc(-c3ccc(CN4CCOCC4)cc3)cc3c2cnn3C2CCCC2)c(=O)[nH]1 + COc1cc2c(cc1O)CCNC21CSC2c3c(OC(C)=O)c(C)c4c(c3C(COC1=O)N1C(O)C3Cc5cc(C)c(OC)c(O)c5C(C21)N3C)OCO4 the pIC50 (curve of first compound, second compound 30 pM) was < 5.00, the pIC50 (curve of first compound, second compound 94.9 pM) was < 5.00 and the pIC50 (curve of first compound, second compound 0.0003 µM) was < 5.00. The pIC50 (curve of first compound, second compound 0.000949 µM) was < 5.00, the pIC50 [1] was > 7.50 and the viability, T/C (second compound 30 pM, first compound 0.0316 µM) was 87.5%. The viability, T/C (second compound 30 pM, first compound 0.1 µM) was 106%, the viability, T/C (second compound 30 pM, first compound 0.316 µM) was 96.8% and the viability, T/C (second compound 30 pM, first compound 1 µM) was 93.8%. For the same compound, the viability, T/C (second compound 30 pM, first compound 3.16 µM) was 86.7%, the viability, T/C (second compound 30 pM, first compound 10 µM) was 95.8% and the viability, T/C (second compound 94.9 pM, first compound 0.0316 µM) was 98.3%. The viability, T/C (second compound 94.9 pM, first compound 0.1 µM) was 100%, the viability, T/C (second compound 94.9 pM, first compound 0.316 µM) was 101% and the viability, T/C (second compound 94.9 pM, first compound 1 µM) was 96.6%. The viability, T/C (second compound 94.9 pM, first compound 3.16 µM) was 83.1%, the viability, T/C (second compound 94.9 pM, first compound 10 µM) was 91.8% and the viability, T/C (second compound 0.0003 µM, first compound 0.0316 µM) was 105%. It also gave a viability, T/C (second compound 0.0003 µM, first compound 0.1 µM) of 115%, a viability, T/C (second compound 0.0003 µM, first compound 0.316 µM) of 109% and a viability, T/C (second compound 0.0003 µM, first compound 1 µM) of 110%. It also gave a viability, T/C (second compound 0.0003 µM, first compound 3.16 µM) of 110%, a viability, T/C (second compound 0.0003 µM, first compound 10 µM) of 93.3% and a viability, T/C (second compound 0.000949 µM, first compound 0.0316 µM) of 108%. For the same compound, the viability, T/C (second compound 0.000949 µM, first compound 0.1 µM) was 104%, the viability, T/C (second compound 0.000949 µM, first compound 0.316 µM) was 113% and the viability, T/C (second compound 0.000949 µM, first compound 1 µM) was 103%. It also gave a viability, T/C (second compound 0.000949 µM, first compound 3.16 µM) of 92.3%, a viability, T/C (second compound 0.000949 µM, first compound 10 µM) of 97.8% and a viability, T/C [6] of 3.24%. It also gave a viability, T/C [7] of 1.05%, a viability, T/C [8] of 2.46% and a viability, T/C [9] of 0.49%. For the same compound, the viability, T/C [10] was 0.37% and the viability, T/C [11] was 0.44%.
Cn1ncnc1[C@H]1c2n[nH]c(=O)c3cc(F)cc(c23)N[C@@H]1c1ccc(F)cc1 was tested, and the viability, T/C (compound 0.00949 µM) was 96.2% and 89.2% and 90.4%, the viability, T/C (compound 0.03 µM) was 94.6% and 95.9% and 92.7% and the viability, T/C (compound 0.0949 µM) was 87.4% and 93.6% and 101%. For the same compound, the viability, T/C (compound 0.3 µM) was 89.4% and 101% and 88.2%, the viability, T/C (compound 0.949 µM) was 88.6% and 84.1% and 87% and the viability, T/C (compound 3 µM) was 94.2% and 99.2% and 107%. For the same compound, the pIC50 (curve of compound) was < 5.52.
